Reference: patent US10906873B2, “Substituted cyclic amides as herbicides” (FMC Corporation, priority 2015, dated 2021)

Legend:
Type in all cases: in vivo
[1] = system: pigweed (Amaranthus retroflexus); experiment: Test A postemergence, pigweed; conditions: 0 to 100 scale
Procedure, shortened: (§1)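 Seeds sown in loam–sand blend received a directed soil spray preemergence; postemergence plants (2–10 cm, one- to two-leaf stage) were sprayed with test chemicals in non-phytotoxic solvent with surfactant. After about 10 d in greenhouse, injury was scored visually versus untreated controls, 0 (no effect) to 100 (complete control).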

[2] = system: pigweed (Amaranthus retroflexus); experiment: Test A preemergence, pigweed; conditions: 0 to 100 scale
Procedure, shortened: as §1

[3] = system: ryegrass, It. (Italian ryegrass, Lolium multiflorum); experiment: Test A preemergence, ryegrass, It.; conditions: 0 to 100 scale
Procedure, shortened: as §1

[4] = system: ryegrass, It. (Italian ryegrass, Lolium multiflorum); experiment: Test A postemergence, ryegrass, It.; conditions: 0 to 100 scale
Procedure, shortened: as §1

[5] = system: ragweed (common ragweed, Ambrosia elatior); experiment: Test A postemergence, ragweed; conditions: 0 to 100 scale
Procedure, shortened: as §1

[6] = system: galium (catchweed bedstraw, Galium aparine); experiment: Test A postemergence, galium; conditions: 0 to 100 scale
Procedure, shortened: as §1

kochia (Kochia scoparia) [7] = experiment: Test A postemergence, kochia; conditions: 0 to 100 scale
Procedure, shortened: as §1

kochia (Kochia scoparia) [8] = experiment: Test A preemergence, kochia; conditions: 0 to 100 scale
Procedure, shortened: as §1

[9] = system: blackgrass (Alopecurus myosuroides); experiment: Test A postemergence, blackgrass; conditions: 0 to 100 scale
Procedure, shortened: as §1

[10] = system: barnyardgrass (Echinochloa crus-galli); experiment: Test B flooded paddy test, barnyardgrass; conditions: Flood, 250 g ai/ha; scale of 0 to 100 where 0 is no effect and 100 is complete control; 13 to 15 d
Procedure, shortened: (§2)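 Plants at the 2-leaf stage were flooded to 3 cm above soil, and test compounds were applied directly into the paddy water, which was held at that depth throughout. After 13 to 15 d in a greenhouse, injury was rated visually against untreated controls on a 0–100 scale (0 no effect, 100 complete control).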

[11] = system: foxtail, giant (giant foxtail, Setaria faberii); experiment: Test A preemergence, foxtail, giant; conditions: 0 to 100 scale
Procedure, shortened: as §1

[12] = system: barnyardgrass (Echinochloa crus-galli); experiment: Test A postemergence, barnyardgrass; conditions: 0 to 100 scale
Procedure, shortened: as §1

corn (Zea mays) = experiment: Test A postemergence, corn; conditions: 0 to 100 scale
Procedure, shortened: as §1

[13] = system: wheat (Triticum aestivum); experiment: Test A postemergence, wheat; conditions: 0 to 100 scale
Procedure, shortened: as §1

[14] = system: barnyardgrass (Echinochloa crus-galli); experiment: Test A preemergence, barnyardgrass; conditions: 0 to 100 scale
Procedure, shortened: as §1

[15] = system: ducksalad (Heteranthera limosa); experiment: Test B flooded paddy test, ducksalad; conditions: Flood, 250 g ai/ha; scale of 0 to 100 where 0 is no effect and 100 is complete control; 13 to 15 d
Procedure, shortened: as §2

rice (Oryza sativa) = experiment: Test B flooded paddy test, rice; conditions: Flood, 250 g ai/ha; scale of 0 to 100 where 0 is no effect and 100 is complete control; 13 to 15 d
Procedure, shortened: as §2

[16] = system: ragweed (common ragweed, Ambrosia elatior); experiment: Test A preemergence, ragweed; conditions: 0 to 100 scale
Procedure, shortened: as §1

[17] = system: foxtail, giant (giant foxtail, Setaria faberii); experiment: Test A postemergence, foxtail, giant; conditions: 0 to 100 scale
Procedure, shortened: as §1

[18] = system: sedge, umbrella (small-flower umbrella sedge, Cyperus difformis); experiment: Test B flooded paddy test, sedge, umbrella; conditions: Flood, 250 g ai/ha; scale of 0 to 100 where 0 is no effect and 100 is complete control; 13 to 15 d
Procedure, shortened: as §2

## O=C1NCC(C#Cc2ccc(F)cc2)C1C(=O)Nc1cccc(F)c1F (stereo not drawn) [Compound 16]
[1]; 125 g ai/ha
  Plant response rating, Pigweed: 0
[1]; 500 g ai/ha
  Plant response rating, Pigweed: 0
[2]; 125 g ai/ha
  Plant response rating, Pigweed: 0
[2]; 500 g ai/ha
  Plant response rating, Pigweed: 0
[3]; 125 g ai/ha
  Plant response rating, Ryegrass, It.: 0
[3]; 500 g ai/ha
  Plant response rating, Ryegrass, It.: 0
[4]; 125 g ai/ha
  Plant response rating, Ryegrass, It.: 0
[4]; 500 g ai/ha
  Plant response rating, Ryegrass, It.: 0
[5]; 125 g ai/ha
  Plant response rating, Ragweed: 0
[5]; 500 g ai/ha
  Plant response rating, Ragweed: 0
[6]; 125 g ai/ha
  Plant response rating, Galium: 0
[6]; 500 g ai/ha
  Plant response rating, Galium: 0
Kochia (Kochia scoparia) [7]; 125 g ai/ha
  Plant response rating, Kochia: 0
Kochia (Kochia scoparia) [7]; 500 g ai/ha
  Plant response rating, Kochia: 0
Kochia (Kochia scoparia) [8]; 125 g ai/ha
  Plant response rating, Kochia: 0
Kochia (Kochia scoparia) [8]; 500 g ai/ha
  Plant response rating, Kochia: 0
[9]; 125 g ai/ha
  Plant response rating, Blackgrass: 0
[9]; 500 g ai/ha
  Plant response rating, Blackgrass: 0
[10]
  Plant response rating, Barnyardgrass: 0
[11]; 125 g ai/ha
  Plant response rating, Foxtail, Giant: 60
[11]; 500 g ai/ha
  Plant response rating, Foxtail, Giant: 90
[12]; 125 g ai/ha
  Plant response rating, Barnyardgrass: 40
[12]; 500 g ai/ha
  Plant response rating, Barnyardgrass: 60
Corn (Zea mays); 125 g ai/ha
  Plant response rating, Corn: 0
Corn (Zea mays); 500 g ai/ha
  Plant response rating, Corn: 0
[13]; 125 g ai/ha
  Plant response rating, Wheat: 0
[13]; 500 g ai/ha
  Plant response rating, Wheat: 0
[14]; 125 g ai/ha
  Plant response rating, Barnyardgrass: 20
[14]; 500 g ai/ha
  Plant response rating, Barnyardgrass: 90
[15]
  Plant response rating, Ducksalad: 70
Rice (Oryza sativa)
  Plant response rating, Rice: 0
[16]; 125 g ai/ha
  Plant response rating, Ragweed: 0
[16]; 500 g ai/ha
  Plant response rating, Ragweed: 0
[17]; 125 g ai/ha
  Plant response rating, Foxtail, Giant: 20
[17]; 500 g ai/ha
  Plant response rating, Foxtail, Giant: 40
[18]
  Plant response rating, Sedge, Umbrella: 0

## O=C1NCC(/C=C/c2ccccc2)C1C(=O)Nc1cccc(F)c1F (stereo not drawn) [Compound 33, N-(2,3-difluorophenyl)-2-oxo-4-[(1E)-2-phenylethenyl]-3-pyrrolidinecarboxamide]
[1]; 125 g ai/ha
  Plant response rating, Pigweed: 0
[1]; 500 g ai/ha
  Plant response rating, Pigweed: 0
[2]; 125 g ai/ha
  Plant response rating, Pigweed: 0
[2]; 500 g ai/ha
  Plant response rating, Pigweed: 0
[3]; 125 g ai/ha
  Plant response rating, Ryegrass, It.: 0
[3]; 500 g ai/ha
  Plant response rating, Ryegrass, It.: 0
[4]; 125 g ai/ha
  Plant response rating, Ryegrass, It.: 0
[4]; 500 g ai/ha
  Plant response rating, Ryegrass, It.: 0
[5]; 125 g ai/ha
  Plant response rating, Ragweed: 10
[5]; 500 g ai/ha
  Plant response rating, Ragweed: 10
[6]; 125 g ai/ha
  Plant response rating, Galium: 0
[6]; 500 g ai/ha
  Plant response rating, Galium: 0
Kochia (Kochia scoparia) [7]; 125 g ai/ha
  Plant response rating, Kochia: 0
Kochia (Kochia scoparia) [7]; 500 g ai/ha
  Plant response rating, Kochia: 0
Kochia (Kochia scoparia) [8]; 125 g ai/ha
  Plant response rating, Kochia: 0
Kochia (Kochia scoparia) [8]; 500 g ai/ha
  Plant response rating, Kochia: 20
[9]; 125 g ai/ha
  Plant response rating, Blackgrass: 0
[9]; 500 g ai/ha
  Plant response rating, Blackgrass: 0
[10]
  Plant response rating, Barnyardgrass: 40
[11]; 125 g ai/ha
  Plant response rating, Foxtail, Giant: 50
[11]; 500 g ai/ha
  Plant response rating, Foxtail, Giant: 90
[12]; 125 g ai/ha
  Plant response rating, Barnyardgrass: 50
[12]; 500 g ai/ha
  Plant response rating, Barnyardgrass: 90
Corn (Zea mays); 125 g ai/ha
  Plant response rating, Corn: 0
Corn (Zea mays); 500 g ai/ha
  Plant response rating, Corn: 0
[13]; 125 g ai/ha
  Plant response rating, Wheat: 0
[13]; 500 g ai/ha
  Plant response rating, Wheat: 0
[14]; 125 g ai/ha
  Plant response rating, Barnyardgrass: 50
[14]; 500 g ai/ha
  Plant response rating, Barnyardgrass: 90
[15]
  Plant response rating, Ducksalad: 95
Rice (Oryza sativa)
  Plant response rating, Rice: 0
[16]; 125 g ai/ha
  Plant response rating, Ragweed: 0
[16]; 500 g ai/ha
  Plant response rating, Ragweed: 0
[17]; 125 g ai/ha
  Plant response rating, Foxtail, Giant: 70
[17]; 500 g ai/ha
  Plant response rating, Foxtail, Giant: 70
[18]
  Plant response rating, Sedge, Umbrella: 0

## O=C1NCC(C#Cc2cccc(Cl)c2)C1C(=O)Nc1ccccc1F (stereo not drawn) [Compound 29]
[1]; 125 g ai/ha
  Plant response rating, Pigweed: 0
[1]; 500 g ai/ha
  Plant response rating, Pigweed: 0
[2]; 125 g ai/ha
  Plant response rating, Pigweed: 0
[2]; 500 g ai/ha
  Plant response rating, Pigweed: 0
[3]; 125 g ai/ha
  Plant response rating, Ryegrass, It.: 0
[3]; 500 g ai/ha
  Plant response rating, Ryegrass, It.: 0
[4]; 125 g ai/ha
  Plant response rating, Ryegrass, It.: 0
[4]; 500 g ai/ha
  Plant response rating, Ryegrass, It.: 0
[5]; 125 g ai/ha
  Plant response rating, Ragweed: 0
[5]; 500 g ai/ha
  Plant response rating, Ragweed: 0
[6]; 125 g ai/ha
  Plant response rating, Galium: 0
[6]; 500 g ai/ha
  Plant response rating, Galium: 0
Kochia (Kochia scoparia) [7]; 125 g ai/ha
  Plant response rating, Kochia: 0
Kochia (Kochia scoparia) [7]; 500 g ai/ha
  Plant response rating, Kochia: 0
Kochia (Kochia scoparia) [8]; 125 g ai/ha
  Plant response rating, Kochia: 0
Kochia (Kochia scoparia) [8]; 500 g ai/ha
  Plant response rating, Kochia: 0
[9]; 125 g ai/ha
  Plant response rating, Blackgrass: 0
[9]; 500 g ai/ha
  Plant response rating, Blackgrass: 0
[10]
  Plant response rating, Barnyardgrass: 0
[11]; 125 g ai/ha
  Plant response rating, Foxtail, Giant: 0
[11]; 500 g ai/ha
  Plant response rating, Foxtail, Giant: 60
[12]; 125 g ai/ha
  Plant response rating, Barnyardgrass: 0
[12]; 500 g ai/ha
  Plant response rating, Barnyardgrass: 60
Corn (Zea mays); 125 g ai/ha
  Plant response rating, Corn: 0
Corn (Zea mays); 500 g ai/ha
  Plant response rating, Corn: 0
[13]; 125 g ai/ha
  Plant response rating, Wheat: 0
[13]; 500 g ai/ha
  Plant response rating, Wheat: 0
[14]; 125 g ai/ha
  Plant response rating, Barnyardgrass: 30
[14]; 500 g ai/ha
  Plant response rating, Barnyardgrass: 70
[15]
  Plant response rating, Ducksalad: 75
Rice (Oryza sativa)
  Plant response rating, Rice: 0
[16]; 125 g ai/ha
  Plant response rating, Ragweed: 0
[16]; 500 g ai/ha
  Plant response rating, Ragweed: 0
[17]; 125 g ai/ha
  Plant response rating, Foxtail, Giant: 0
[17]; 500 g ai/ha
  Plant response rating, Foxtail, Giant: 60
[18]
  Plant response rating, Sedge, Umbrella: 0
